Experimental data taken from paper PMC11483813, “Bombesin-Targeted Delivery of β-Carboline-Based Ir(III) and Ru(II) Photosensitizers for a Selective Photodynamic Therapy of Prostate Cancer” (Inorganic Chemistry, 2024).

Legend:
PC-3 cells = assay: Apoptosis assay, annexin V/propidium iodide; type: cell-based, human; conditions: five times IC50,light, photoactivated, 24 h
Procedure: Mitochondria play an important role in the regulation of apoptosis. Alterations in the MMP can cause the release of apoptotic factors, such as cytochrome c, which activates the caspase cascade, leading to programmed cell death.[66],[67] In order to elucidate whether the toxic effect of the compounds at the mitochondrial level triggers cell death by apoptosis, a dual annexin V/propidium iodide labeling experiment was performed. The initial stages of apoptosis are characterized by alterations in the symmetry of phospholipids in the cytoplasmic membrane, which can be detected using annexin V (An). The late stages also include disruption of the cell membrane, permitting the penetration of propidium iodide (PrI), which emits red fluorescence when bound to DNA. […]
Figure 13 Cell death mechanism. […] After 24 h, the percentage of viable, necrotic, early apoptotic, and late apoptotic cells was analyzed by flow cytometry using propidium iodide and annexin V staining. […]
PC-3 cells were seeded into 12-well plates at a density of 100000 cells/well. […] The samples were immediately analyzed using a Novocyte flow cytometer. Annexin-FITC staining was detected at a wavelength of 520 nm, and propidium iodide was detected at 617 nm. The fluorescence emission of 10000 cells per sample was measured, and the percentages of live, early apoptotic, late apoptotic, and necrotic cell populations were determined.

[1] = Photocatalytic singlet oxygen generation (ABDA probe); type: physicochemical; conditions: H2O:DMSO (1:1), blue light 460 nm, rose bengal as reference
Excerpt: Singlet oxygen is thought to be the main cytotoxic species in type II PDT processes. Therefore, we determined the ability of Ir-Me and Ru-Me to generate ^1O2 under photocatalytic conditions, as illustrative examples of our PSs. As shown in Figures 6 and S51, we monitored by means of UV–vis spectroscopy the oxidation of 9,10-anthracenediyl bis(methylene)dimalonic acid (ABDA, 8x 10^–5 M) in the presence of atmospheric oxygen, using Ir-Me (10^–5 M) as the PS and H2O:DMSO (1:1) as the solvent system under blue light exposure (λir = 460 nm). […] Moreover, the singlet oxygen quantum yield values (ΦΔ) of Ir-Me and Ru-Me were determined using rose bengal (ΦΔ = 0.75) as the reference. […]
an integrating sphere. For the determination of the luminescence lifetime, the fluorescence decay was measured on a FLS980 spectrofluorometer equipped with a TSCPC laser (Ir(III) complexes: λ ex = 405 nm; Ru(II) complexes: λ ex = 450 nm) and a REDPMT detector. The F980 spectrometer operating software was used to collect and process luminescence lifetime data.
Photostability of Ir(III) and Ru(II) complexes. The photostability of Ir(III) or Ru(II) complexes was monitored by 1H RMN. […]
Singlet oxygen generation. The capacity of Ir-Me and Ru-Me to generate singlet oxygen ( 1O2) was determined by an indirect method using 9,10-anthracenediyl-bis(methylene) dimalonic acid (ABDA) as a probe. […]

[2] = Self-aggregation study (Lambert-Beer law, UV-vis); type: physicochemical; conditions: H2O:DMSO (99:1), 1 to 40 μM, absorbance at 417 nm
Procedure: The possible aggregation properties (self-assembly behavior) were investigated for the lipophilic derivative Ir-Me through the respective analysis of the Lambert–Beer law using UV–vis spectroscopy in H2O:DMSO (99:1). More specifically, the absorbance of Ir-Me at λ = 417 nm was plotted versus concentration in the range between 1 and 40 μM. An excellent linear fitting was obtained confirming that there is no significant deviation from the Lambert–Beer law (Figures S57 and S58).

In the case of COC(=O)/C=C/c1ccc(-c2nccc3c4ccccc4n(C)c23)nc1.[Cl-].[Ir+3].[c-]1ccccc1-c1ccccn1.[c-]1ccccc1-c1ccccn1 [Ir-Me], the “cells in early apoptosis” value (PC-3 cells) is reported as 11.9%, the “cells in late apoptosis” value (PC-3 cells) is reported as 41.7% and the “singlet oxygen quantum yield (ΦΔ)” value [1] is reported as 4%. The self-aggregation [2] was “does not form aggregates”.
